Our source for the IC50 values is BindingDB's records for doi:10.1016/s0960-894x(01)00003-8 (Shionogi, 2001).

This test can be described thus: Concentration required to inhibit human Cytosolic phospholipase A2.
As to `CCCCC/C=C\C/C=C\C/C=C\C/C=C\CCCC(=O)C(F)(F)F` [Arachidonyltrifluoromethane], the IC50 turned out to be 420 nM. The molecule `O=C1N=C(O)SC1=Cc1ccc(C(=O)NC[C@@H]2C[C@@H](OCc3ccccc3-c3ccccc3)CN2C(=O)c2ccccc2C(=O)c2ccccc2)cc1` [N-[(2S,4R)-1-(2-Benzoyl-benzoyl)-4-(biphenyl-2-ylmethoxy)-pyrrolidin-2-ylmethyl]-4-[2,4-dioxo-thiazolidin-(5Z)-ylidenemethyl]-benzamide] came in with an IC50 of 165 nM.

As to `O=C1N=C(O)SC1=Cc1ccc(C(=O)NC[C@@H]2C[C@@H](S(c3ccccc3)(c3ccccc3)c3ccccc3)CN2C(=O)c2ccccc2C(=O)c2ccc(F)cc2F)cc1` [N-[(2S,4R)-1-[2-(2,4-Difluoro-benzoyl)-benzoyl]-4-(triphenyl-lambda*4*-sulfanyl)-pyrrolidin-2-ylmethyl]-4-[2,4-dioxo-thiazolidin-(5Z)-ylidenemethyl]-benzamide], half-maximal inhibition (IC50) required 4.2 nM.
